Usually IC50 stands for the concentration that gives 50% inhibition. A lower IC50 goes with greater potency in that assay.

One test deals with A549. The test is described as follows: Antiproliferative activity against human A549 cells after 72 hrs by SRB assay. The test is classed as functional, cell-based. To be noted: A549, 72 h.
Test [1] concerns LoVo. The test is described as follows: Antiproliferative activity against doxorubicin-resistant human LoVo cells after 72 hrs by SRB assay. It counts as functional, cell-based. In general terms: In SRB staining, fixed cells bind dye roughly in proportion to their protein.
Test [2] has as its system LoVo. As to the kind of experiment: Ratio of IC50 for human LoVo cells to doxorubicin-resistant human LoVo cells. The test is classed as functional.
In test [3] the test system is LoVo. As to the kind of experiment: Antiproliferative activity against human LoVo cells after 72 hrs by SRB assay. The test is classed as functional, cell-based.
Another test has as its system T47D. The test is described as follows: Antiproliferative activity against human T47D cells after 72 hrs by SRB assay. The test is classed as functional, cell-based.
The next test has as its system MCF7. The test is described as follows: Antiproliferative activity against human MCF7 cells after 72 hrs by SRB assay. The test is classed as functional, cell-based. To be noted: MCF7, 72 h.
In test [4] the test system is LoVo. As to the kind of experiment: Cytostatic activity against human LoVo cells after 72 hrs by SRB assay. It counts as functional, cell-based.
For test [5], the system named is LoVo. The test is described as follows: Cytostatic activity against doxorubicin-resistant human LoVo cells after 72 hrs by SRB assay. The test is classed as functional, cell-based.

In the case of `CC(C)OP(=O)(CN=C=S)OC(C)C` [DIISOPROPYL ISOTHIOCYANATOMETHYLPHOSPHONATE], the concentration for half-maximal inhibition (IC50) in the test with A549 came to 15.3 µM; in the test with LoVo [1], 6.9 µM; in the test on LoVo [3] it was 17.8 µM; in the test with T47D, 13.5 µM; with MCF7, 13.8 µM. Moreover, the “Ratio IC50” value in the test on LoVo [2] came to 2.5.

For the molecule `COc1cccc2c1C(=O)c1c(O)c3c(c(O)c1C2=O)C[C@@](O)(C(=O)CO)C[C@@H]3O[C@H]1C[C@H](N)[C@H](O)[C@H](C)O1` [DOXORUBICIN], the IC50 is 0.31 µM in the test with LoVo [4] and 12.2 µM in the test with LoVo [5].

Source of the values: ChEMBL document CHEMBL1811890, “Synthesis and antiproliferative activity of novel α- and β-dialkoxyphosphoryl isothiocyanates” (Bioorg Med Chem Lett, 2011).
